In patent US20090118253A1, “COMPOSITIONS AND METHODS FOR TREATING DYSFUNCTIONAL UTERINE BLEEDING” (REPROS THERAPEUTICS INC., priority 2007, published 2009):

How the values were obtained:
[1] = tested on: pre-menopausal adult women diagnosed with endometriosis; assay: Six month endometriosis study: pain diaries and pain intensity surveys; type: in vivo, human; conditions: for pain free days, percent: 180 day treatment period
Description: Pain reduction also occurred more rapidly than with the active control, Lucrin®. The response of pain to treatment in this study was analyzed in two ways. Patients in the study maintained daily pain diaries to record the severity and frequency of pain. In addition, at each office visit, patients filled out endometriosis symptom surveys that included a questionnaire that evaluated intensity of pain on a bad day on a scale of 0-10 with 10 being the greatest intensity. […] This decrease in duration of pain was statistically better (p=0.0012) than the 117.8 (74%; standard deviation 51.4 days) pain free days achieved with Lucrin n. […] Patients on CDB-4124 12.5 mg and 25 mg doses had 115.9 (66%; standard deviation 69.2 days) and 133.6 (75%; standard deviation 27.4 days) pain free days, respectively. […] The 25 mg and 12.5 mg doses of CDB-4124 were not statistically different from Lucrin®. […] The intensity of pain was asked by the question: “On a scale of 1-10, with 0 being no pain and 10 being extreme pain, how intense was your pain on a bad day?” The mean scores for intensity of pain at baseline were 6.3 for the CDB-4124 groups and 6.1 for the Lucrin® group. […] At month three all four active treatment groups had satistically significant reduction in pain compared with baseline, with the following scores: 3.7 (p=0.03) for 12.5 mg CDB-4124, 3.2 (p=0.03) for 25 mg CDB-4124, 1.6 (p=0.015) for 50 mg CDB-4124 and 1.5 (p=0.016) for Lucrin®. These dose related reductions continued until month six when the values for pain intensity were 2.0 (p=0.008), 2.8 (p=0.023), 0.6 (p=0.004) and 0.7 (p=0.016), respectively. Two months after stopping treatment pain returned and was of similar intensity in all four treatment groups.

[2] = Serum corticosterone in rats; conditions: CDB-4124 10 or 20 mg/kg, RU 486 10 mg/kg, progesterone 10 mg/kg
[3] = Estrogenic, androgenic, anti-estrogenic and anti-androgenic activities
[4] = tested on: progesterone-induced endometrial glandular proliferation in rabbit uterus; assay: anti-McGinty and anti-Clauberg assays in the rabbit uterus; type: in vivo
Text: Also given in Table 1 are the relative biological activities of the same compounds in the rabbit uterus by the anti-McGinty and anti-Clauberg assays. Compound CDB-2914 (listed at the end of the Table) was used as the control or reference compound (rabbit Biological Activity=1.00) for these experiments because results of experiments using CDB-2914 have been published before (Hild-Petito et al., 1996; Passaro et al., 1997; Reel et al., 1998; Lamer et al., 2000). For the anti-McGinty test, immature female rabbits received a subcutaneous injection of 5 μg estradiol in 10% ethanol/sesame oil daily for 6 consecutive days. On day 7, animals underwent sterile abdominal surgery to ligate a 3-4 cm segment of both uterine horns. The test compound in appropriate solvent was injected intraluminally into the ligated segment of one uterine horn and vehicle alone into the other. A stimulating dose of progesterone (267 μg/day) was administered subcutaneously to each rabbit daily for the next three days to induce endometrial proliferation. All animals were sacrificed at day 10 for removal of the uterus where a segment central to the ligatures was removed and fixed in 10% neutral buffered formalin and submitted for histological processing. Five micron sections stained with hematoxylin and cosin were evaluated microscopically for the degree of endometrial glandular proliferation. The percent inhibition of endometrial proliferation for each rabbit was calculated and the mean of the group of five animals recorded. For the Anti-Clauberg test, immature female rabbits received a subcutaneous injection of 5 μg estradiol in 10% ethanol/sesame oil daily for 6 consecutive days. On day 7, animals received progesterone by subcutaneous injection (160 μg/day) and the experimental compound in appropriate vehicle orally or subcutaneously for five consecutive days. One group of rabbits received progesterone only. Twenty-four hours after the last dose, all animals were sacrificed for removal of the uterus which was cleaned of all fat and connective tissue, weighed to the nearest 0.2 mg and placed in 10% neutral buffered formalin for subsequent histological processing. Five micron sections stained with hematoxylin and eosin were evaluated microscopically for the degree of endometrial glandular proliferation. The percent inhibition of endometrial proliferation at each dose level of the test compound was derived by comparison with progesterone-stimulated animals alone. The data presented in Table 1 (rabbit Biol. Act.) reflects the average of the results obtained for each compound by the anti-McGinty and anti-Clauberg assays relative to CDB-2914.

Serum cortisol in rats = type: in vivo, rat
Description: These higher levels were in the range of 3-4 ug/dl (30-40 ng/ml).

In the case of COCC(=O)[C@@]1(OC(C)=O)CC[C@H]2[C@@H]3CCC4=CC(=O)CCC4=C3[C@@H](c3ccc(N(C)C)cc3)C[C@@]21C [CDB-4124, 21-methoxy-17α-acetoxy-11β-(4 N,N-dimethylaminophenyl)-19-norpregna-4,9-diene-3,20-dione], the “mean score for intensity of pain on a bad day (scale 0-10)” value ([1]; baseline) is reported as 6.3, the “score for intensity of pain on a bad day (scale 0-10)” value ([1]; month six, 12.5 mg/day) is reported as 2.0 and the “score for intensity of pain on a bad day (scale 0-10)” value ([1]; month six, 25 mg/day) is reported as 2.8. For the same compound, the “score for intensity of pain on a bad day (scale 0-10)” value ([1]; month six, 50 mg/day) was 0.6, the “score for intensity of pain on a bad day (scale 0-10)” value ([1]; month three, 12.5 mg/day) was 3.7 and the “score for intensity of pain on a bad day (scale 0-10)” value ([1]; month three, 25 mg/day) was 3.2. For the same compound, the “score for intensity of pain on a bad day (scale 0-10)” value ([1]; month three, 50 mg/day) was 1.6, the “pain free days over the 180 day treatment period” value ([1]; women, 12.5 mg/day oral) was 115.9 days and the “pain free days, percent” value ([1]; women, 12.5 mg/day oral) was 66%. For the same compound, the “pain free days over the 180 day treatment period” value ([1]; women, 25 mg/day oral) was 133.6 days, the “pain free days, percent” value ([1]; women, 25 mg/day oral) was 75% and the “days of pain over the first three months” value ([1]; women, 50 mg/day oral) was “less than 1 day”. For the same compound, the “pain free days over the 180 day treatment period” value ([1]; women, 50 mg/day oral) was 170 days, the “pain free days, percent” value ([1]; women, 50 mg/day oral) was 96% and the “differences in serum corticosterone between groups” value [2] was “No differences”. The “estrogenic, androgenic, anti-estrogenic, and anti-androgenic activities” value [3] was “lack estrogenic, androgenic, anti-estrogenic, and anti-androgenic activities”, the “rabbit Biol. Act.” value ([4]; average of anti-McGinty and anti-Clauberg results relative to CDB-2914 (=1.00)) was 3.60 and the “antiprogestin activity in the rabbit uterus” value ([4]; in comparison to RU 486 and CDB-2914) was “strong antiprogestin activity”. The “levels of serum cortisol versus control group” value (Serum cortisol in rats; 10 mg/kg, 21 days of chronic dosing) was “significantly higher” and the “effect of increasing doses on serum cortisol” value (Serum cortisol in rats; FIG. 2) was “dose-dependent”.
